# Test results: US20170065564A1, “BIS-CYCLIC GUANIDINE COMPOUND COMPOSITIONS, METHODS OF USE AND TREATMENT THEREOF” (University of South Florida, priority 2014, published 2017)
# What was measured:
# [1] = test system: Staphylococcus aureus biofilm; experiment: Minimum biofilm eradication concentration (MBEC) assay; format: cell-based; settings: 24 h biofilm, purified compound
# Procedure: (§1) The minimum biofilm eradication concentration (MBEC) was determined in 96-well microtiter plates as follows. Broth cultures of ESKAPE strains were grown using the conditions described above. Biofilms for each of the ESKAPE pathogens were generated from these as we have previously described for S. aureus, however human serum was not used for non-staphylococcal organisms.^44 46 For all organisms, biofilms were developed by standardizing an overnight culture into fresh media to an OD600 of 0.5 and adding 150 μl into each well of a 96-well microtiter plate. […] These cultures were incubated at 37° C. overnight alongside no drug controls. After 24 hours, the media was removed from wells and the biofilm resuspended in phosphate buffered saline (PBS). Cultures were mixed by vigorous pipetting, before being serially diluted in PBS, and plated in duplicate on relevant agar. Plates were incubated at 37° C. for 24 hours, and CFUs determined by enumeration. Each analysis was performed using three technical replicates, and antibiofilm activity was determined by comparing treated to untreated samples.
# [2] = test system: Klebsiella pneumoniae biofilm; experiment: as above; format: cell-based; settings: 24 h biofilm, purified compound
# Procedure: as §1
# [3] = test system: Enterococcus faecium biofilm; experiment: as above; format: cell-based; settings: 24 h biofilm, purified compound
# Procedure: as §1
# [4] = test system: Acinetobacter baumannii biofilm; experiment: as above; format: cell-based; settings: 24 h biofilm, purified compound
# Procedure: as §1
# [5] = test system: Enterobacter cloacae biofilm; experiment: as above; format: cell-based; settings: 24 h biofilm, purified compound
# Procedure: as §1
# [6] = test system: Pseudomonas aeruginosa biofilm; experiment: as above; format: cell-based; settings: 24 h biofilm, purified compound
# Procedure: as §1
# Pseudomonas aeruginosa = experiment: Minimal bactericidal concentration (MBC) assay; format: cell-based; settings: Pseudomonas aeruginosa; purified compound; read-out: MBC90
# Procedure: (§2) Briefly, compound was washed by centrifugation and serial dilution, before plating on Tryptic Soy Agar (TSA). Plates were incubated for 24 hours at 37° C. and cell viability assessed by determining CFU/ml at each concentration, for every compound. Percent recovery was then determined compared to CFU/ml from no drug controls. All concentrations and controls were tested using three biological replicates, alongside two technical replicates for each data point.
# Klebsiella pneumoniae = experiment: Minimal bactericidal concentration (MBC) assay; format: cell-based; settings: Klebsiella pneumoniae, purified compound; read-out: MBC90
# Procedure: as §2
# Acinetobacter baumannii = experiment: Minimal bactericidal concentration (MBC) assay; format: cell-based; settings: Acinetobacter baumannii, purified compound; read-out: MBC90
# Procedure: as §2
# Staphylococcus aureus [7] = experiment: Minimal bactericidal concentration (MBC) assay; format: cell-based; settings: Staphylococcus aureus, purified compound; read-out: MBC90
# Procedure: as §2
# Enterococcus faecium [8] = experiment: Minimal bactericidal concentration (MBC) assay; format: cell-based; settings: Enterococcus faecium, purified compound; read-out: MBC90
# Procedure: as §2
# Enterobacter cloacae [9] = experiment: Minimal bactericidal concentration (MBC) assay; format: cell-based; settings: Enterobacter cloacae; purified compound; read-out: MBC90
# Procedure: as §2
# Enterococcus faecium [10] = experiment: MIC micro broth dilution assay; format: cell-based; settings: for MIC: Enterococcus faecium
# Method in brief: (§3)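 Multidrug-resistant clinical ESKAPE isolates were grown overnight (Gram-positives in TSB, Gram-negatives in LB), diluted 1:1,000 and exposed to decreasing compound concentrations in DMF (≤2.0% DMF).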
# Enterobacter cloacae [11] = experiment: MIC micro broth dilution assay; format: cell-based; settings: for MIC: Enterobacter cloacae
# Method in brief: as §3
# S. aureus = experiment: Resistance serial passage assay; format: cell-based, Staphylococcus aureus; settings: 8 passages, concentration doubled each day
# Procedure: ESKAPE pathogens were grown overnight in liquid media at 37° C. These cultures were then diluted 1:100 in fresh media, and seeded into a 96-well plate. Lead bis-cyclic guanidines or control agents were added to respective wells at half MIC concentrations. Plates were then incubated for 24 hours at 37° C., with bacteria removed from these cultures on the following day, to inoculate fresh media (1:100 dilution) containing compounds at a 2-fold higher concentrations. These were then grown overnight, and the procedure repeated for a total of eight days. […] Each experiment was performed in triplicate, yielding identical results.
# Staphylococcus aureus [12] = experiment: MIC micro broth dilution assay; format: cell-based; settings: for MIC: Staphylococcus aureus
# Method in brief: as §3
structure (smiles),measurement,setting,value
CCCCCCCN1C(=N)N(CCCC[C@H]2CNC(=N)N2CCc2cccc(C(F)(F)F)c2)C[C@@H]1CCCC [Compound 1],MBEC50,[1],13.87 µM
same,MBEC50,[2],6.97 µM
same,MBEC50,[3],38.84 µM
same,MBEC50,[4],14.82 µM
same,MBEC50,[5],13.02 µM
same,MBEC50,[6],19.68 µM
same,MBC,Pseudomonas aeruginosa,4.01 µM
same,MBC,Klebsiella pneumoniae,2.36 µM
same,MBC,Acinetobacter baumannii,3.05 µM
same,MBC,Staphylococcus aureus [7],3.09 µM
same,MBC,Enterococcus faecium [8],1.87 µM
same,MBC,Enterobacter cloacae [9],3.14 µM
same,"stacked score activity, 100/MIC, E",Enterococcus faecium [10]; E. faecium,20
same,MIC,Enterococcus faecium [10]; E. faecium isolate 1406,2 µM
same,MIC,Enterococcus faecium [10]; E. faecium isolate 1407,2 µM
same,MIC,Enterococcus faecium [10]; E. faecium isolate 1432,2 µM
same,MIC,Enterococcus faecium [10]; E. faecium isolate 1438,2 µM
same,MIC,Enterococcus faecium [10]; E. faecium isolate 1439,2 µM
same,MIC,Enterococcus faecium [10]; E. faecium isolate 1443,2 µM
same,MIC,Enterococcus faecium [10]; E. faecium isolate 1444,2 µM
same,MIC,Enterococcus faecium [10]; E. faecium isolate 1449,2 µM
same,MIC,Enterococcus faecium [10]; E. faecium isolate 1450,2 µM
same,MIC,Enterococcus faecium [10]; E. faecium isolate 1451,2 µM
same,MIC,"Enterococcus faecium [10]; purified compound, Table 1",1.63 µM
same,"stacked score activity, 100/MIC, E",Enterobacter cloacae [11]; E. cloacae,20
same,MIC,Enterobacter cloacae [11]; E. cloacae isolate 1404,2 µM
same,MIC,Enterobacter cloacae [11]; E. cloacae isolate 1405,5 µM
same,MIC,Enterobacter cloacae [11]; E. cloacae isolate 1430,3 µM
same,MIC,Enterobacter cloacae [11]; E. cloacae isolate 1431,5 µM
same,MIC,Enterobacter cloacae [11]; E. cloacae isolate 1445,3 µM
same,MIC,Enterobacter cloacae [11]; E. cloacae isolate 1446,7 µM
same,MIC,Enterobacter cloacae [11]; E. cloacae isolate 1447,5 µM
same,MIC,Enterobacter cloacae [11]; E. cloacae isolate 1448,3 µM
same,MIC,Enterobacter cloacae [11]; E. cloacae isolate 1454,3 µM
same,MIC,Enterobacter cloacae [11]; E. cloacae isolate 1455,2 µM
same,MIC,"Enterobacter cloacae [11]; purified compound, Table 1",1.63 µM
same,concentration inhibiting 90% of isolates,Enterobacter cloacae [11]; panel of E. cloacae clinical isolates,10 µM
same,increase in MIC after serial passage,S. aureus,two-fold
same,"stacked score activity, 100/MIC, S",Staphylococcus aureus [12]; S. aureus,50
same,MIC,Staphylococcus aureus [12]; S. aureus isolate 542,2 µM
same,MIC,Staphylococcus aureus [12]; S. aureus isolate 626,2 µM
same,MIC,Staphylococcus aureus [12]; S. aureus isolate 635,2 µM
same,MIC,Staphylococcus aureus [12]; S. aureus isolate 648,2 µM
same,MIC,Staphylococcus aureus [12]; S. aureus isolate 690,2 µM
same,MIC,Staphylococcus aureus [12]; S. aureus isolate 693,2 µM
same,MIC,Staphylococcus aureus [12]; S. aureus isolate 715,2 µM
same,MIC,Staphylococcus aureus [12]; S. aureus isolate 728,2 µM
same,MIC,Staphylococcus aureus [12]; S. aureus isolate 834,2 µM
same,MIC,Staphylococcus aureus [12]; S. aureus isolate 1043,2 µM
same,MIC,Staphylococcus aureus [12]; S. aureus isolate 1049,2 µM
same,MIC,"Staphylococcus aureus [12]; purified compound, Table 1",1.63 µM
